Measured values from ChEMBL document CHEMBL1240505, “Studies on preparation and photodynamic mechanism of chlorin P6-13,15-N-(cyclohexyl)cycloimide (Chlorin-H) and its antitumor effect for photodynamic therapy in vitro and in vivo” (Bioorg Med Chem, 2010).
Active and inactive are the calls of the source. No cut-off for these calls is given here.

Assays:
A549 [1] = assay: Antitumor activity against human A549 cells xenografted in nude BALB/C mouse assessed as scab formation at 8 uM after 24 hrs followed by irradiated with light dose 78 J/cm2 measured after 20 days; assay type: functional, cell-based
A549 [2] = assay: Antitumor activity against human A549 cells xenografted in nude BALB/C mouse assessed as reduction of tumor growth at 8 uM after 20 days; assay type: functional, cell-based
[3] = Drug uptake in human U87 cell mitochondria by using Hoechst 33258 staining; assay type: ADME; settings: u-87mg atcc
[4] = Drug uptake in human U87 cell nucleus by using Hoechst 33258 staining; assay type: ADME, cell-based; settings: u-87mg atcc
[5] = Drug uptake in human A549 cell mitochondria by using Hoechst 33258 staining; assay type: ADME
[6] = Drug uptake in human A549 cell nucleus by using Hoechst 33258 staining; assay type: ADME, cell-based
AGS = assay: Cytotoxicity against human AGS cells assessed as cell death at 4 uM after 24 hrs followed by irradiated with light dose 0.18 J/cm2 by MTT assay; assay type: functional, cell-based
SGC-7901 = assay: Cytotoxicity against human SGC7901 cells assessed as cell death at 4 uM after 24 hrs followed by irradiated with light dose 0.18 J/cm2 by MTT assay; assay type: functional, cell-based
A549 [7] = assay: Cytotoxicity against human A549 cells assessed as cell death at 4 uM after 24 hrs followed by irradiated with light dose 0.18 J/cm2 by MTT assay; assay type: functional, cell-based
SW480 = assay: Cytotoxicity against human SW480 cells assessed as cell death at 4 uM after 24 hrs followed by irradiated with light dose 0.18 J/cm2 by MTT assay; assay type: functional, cell-based
HL-60 [8] = assay: Cytotoxicity against human HL60 cells assessed as cell death at 4 uM after 24 hrs followed by irradiated with light dose 0.18 J/cm2 by MTT assay; assay type: functional, cell-based
HL-60 [9] = assay: Cytotoxicity against human HL60 cells assessed as cell survival at 4 uM after 24 hrs followed by irradiated with light dose 0.18 J/cm2 by MTT assay; assay type: functional; settings: HL-60, light or radiation study, read-out: Activity
A549 [10] = assay: Antiproliferative activity against human A549 cells assessed as reduction of colony formation at 4 uM irradiated with light dose 0.18 J/cm2 for 14 days before compound challenge measured after 24 hrs using giemsa staining by microscopic analysis; assay type: functional, cell-based
A549 [11] = assay: Inhibition of cell invasion in human A549 cells assessed as invasion index at 4 uM after 72 hrs followed by irradiated with light dose 0.18 J/cm2 relative to control; assay type: functional; settings: A549, light or radiation study
A549 [12] = assay: Inhibition of cell invasion in human A549 cells assessed as invasion index at 4 uM after 72 hrs relative to control; assay type: functional; settings: A549, 72 h
A549 [13] = assay: Cell cycle arrest in human A549 cells assessed as accumulation at G0/G1 phase at 4 uM after 24 hrs by flow cytometry; assay type: functional
A549 [14] = assay: Cell cycle arrest in human A549 cells assessed as accumulation at G2/M phase at 4 uM after 24 hrs by flow cytometry; assay type: functional
A549 [15] = assay: Cell cycle arrest in human A549 cells assessed as accumulation at S phase at 4 uM after 24 hrs by flow cytometry; assay type: functional
A549 [16] = assay: Cell cycle arrest in human A549 cells assessed as accumulation at G0/G1 phase at 4 uM after 24 hrs followed by irradiated with light dose 0.18 J/cm2 by flow cytometry; assay type: functional
A549 [17] = assay: Cell cycle arrest in human A549 cells assessed as accumulation at G2/M phase at 4 uM after 24 hrs followed by irradiated with light dose 0.18 J/cm2 by flow cytometry; assay type: functional
A549 [18] = assay: Cell cycle arrest in human A549 cells assessed as accumulation at S phase at 4 uM after 24 hrs followed by irradiated with light dose 0.18 J/cm2 by flow cytometry; assay type: functional
A549 [19] = assay: Induction of apoptosis in human A549 cells assessed as pre-necrotic cells at 4 uM after 24 hrs using annexin-V FITC/PI double staining by flow cytometry; assay type: functional
A549 [20] = assay: Induction of apoptosis in human A549 cells assessed as late apoptotic cells at 4 uM after 24 hrs using annexin-V FITC/PI double staining by flow cytometry; assay type: functional
A549 [21] = assay: Induction of apoptosis in human A549 cells assessed as viable cells at 4 uM after 24 hrs using annexin-V FITC/PI double staining by flow cytometry; assay type: functional; settings: A549, 24 h, read-out: Activity
A549 [22] = assay: Induction of apoptosis in human A549 cells assessed as apoptotic cells at 4 uM after 24 hrs using annexin-V FITC/PI double staining by flow cytometry; assay type: functional
A549 [23] = assay: Induction of apoptosis in human A549 cells assessed as pre-necrotic cells at 4 uM after 24 hrs followed by irradiated with light dose 0.18 J/cm2 using annexin-V FITC/PI double staining by flow cytometry; assay type: functional
A549 [24] = assay: Induction of apoptosis in human A549 cells assessed as late apoptotic cells at 4 uM after 24 hrs followed by irradiated with light dose 0.18 J/cm2 using annexin-V FITC/PI double staining by flow cytometry; assay type: functional
A549 [25] = assay: Induction of apoptosis in human A549 cells assessed as viable cells at 4 uM after 24 hrs followed by irradiated with light dose 0.18 J/cm2 using annexin-V FITC/PI double staining by flow cytometry; assay type: functional; settings: A549, light or radiation study, read-out: Activity
A549 [26] = assay: Induction of apoptosis in human A549 cells assessed as apoptotic cells at 4 uM after 24 hrs followed by irradiated with light dose 0.18 J/cm2 using annexin-V FITC/PI double staining by flow cytometry; assay type: functional
A549 [27] = assay: Induction of apoptosis in human A549 cells assessed as pre-necrotic cells at 4 uM after 24 hrs using annexin-V-PE/7-AAD double staining by flow cytometry; assay type: functional

For `C=Cc1c(C)c2cc3nc(c4c5[nH]c(cc6nc(cc1[nH]2)C(C)=C6CC)c(C)c5C(=O)N(C1CCCCC1)C4=O)[C@@H](CCC(=O)O)[C@@H]3C`, which Activity (A549 [1]) is on record?
The Activity was “Active”.

What about the Activity (A549 [2]) of the same molecule?
The Activity was “inactive”.

And the Drug uptake [3]?
Its Drug uptake is “Active”.

What about the Drug uptake [4] of the same molecule?
The Drug uptake was “Active”.

And the Drug uptake [5]?
The Drug uptake was “Active”.

What about the Drug uptake [6] of the same molecule?
Its Drug uptake is “Active”.

And the Activity (AGS)?
The Activity was “Active”.

What about the Activity (SGC-7901) of the same molecule?
Its Activity is “Active”.

And the Activity (A549 [7])?
Its Activity is “Active”.

What about the Activity (SW480) of the same molecule?
Its Activity is “Active”.

And the Activity (HL-60 [8])?
The Activity was “Active”.

And the viability at 4 µM (HL-60 [9])?
The viability at 4 µM was 78.6%.

What about the Activity (A549 [10]) of the same molecule?
Its Activity is “Active”.

And the inhibition at 4 µM (A549 [11])?
Its inhibition at 4 µM is 15.7%.

What about the inhibition at 4 µM (A549 [12]) of the same molecule?
Its inhibition at 4 µM is 76.4%.

What about the Activity (A549 [13]) of the same molecule?
The Activity was 53.48%.

What about the Activity (A549 [14]) of the same molecule?
Its Activity is 11.07%.

What about the Activity (A549 [15]) of the same molecule?
Its Activity is 35.44%.

And the Activity (A549 [16])?
The Activity was 22.37%.

And the Activity (A549 [17])?
The Activity was 56.07%.

What about the Activity (A549 [18]) of the same molecule?
The Activity was 21.56%.

What about the Activity (A549 [19]) of the same molecule?
Its Activity is 0.24%.

And the Activity (A549 [20])?
The Activity was 3.03%.

What about the viability at 4 µM (A549 [21]) of the same molecule?
Its viability at 4 µM is 92.3%.

What about the Activity (A549 [22]) of the same molecule?
The Activity was 0.99%.

And the Activity (A549 [23])?
The Activity was 0.4%.

What about the Activity (A549 [24]) of the same molecule?
The Activity was 23.28%.

What about the viability at 4 µM (A549 [25]) of the same molecule?
The viability at 4 µM was 2.08%.

What about the Activity (A549 [26]) of the same molecule?
The Activity was 74.24%.

What about the Activity (A549 [27]) of the same molecule?
The Activity was 0.41%.
